Assay results reported in ChEMBL document CHEMBL3817741, “Synthesis, cytotoxic and urease inhibitory activities of some novel isatin-derived bis-Schiff bases and their copper(ii) complexes” (Medchemcomm, 2016).

Legend:
[1] = tested on: NCI-H157; test: Antiproliferative activity against human NCI-H157 cells assessed as cell growth inhibition after 48 hrs by SRB assay; format: functional, cell-based; details: NCI-H157, 48 h
[2] = target: Urease (Canavalia ensiformis, UniProt P07374); test: Inhibition of Jack bean urease assessed as production of ammonia after 30 mins by indophenol method
Urease, sequence (P07374 whole entry): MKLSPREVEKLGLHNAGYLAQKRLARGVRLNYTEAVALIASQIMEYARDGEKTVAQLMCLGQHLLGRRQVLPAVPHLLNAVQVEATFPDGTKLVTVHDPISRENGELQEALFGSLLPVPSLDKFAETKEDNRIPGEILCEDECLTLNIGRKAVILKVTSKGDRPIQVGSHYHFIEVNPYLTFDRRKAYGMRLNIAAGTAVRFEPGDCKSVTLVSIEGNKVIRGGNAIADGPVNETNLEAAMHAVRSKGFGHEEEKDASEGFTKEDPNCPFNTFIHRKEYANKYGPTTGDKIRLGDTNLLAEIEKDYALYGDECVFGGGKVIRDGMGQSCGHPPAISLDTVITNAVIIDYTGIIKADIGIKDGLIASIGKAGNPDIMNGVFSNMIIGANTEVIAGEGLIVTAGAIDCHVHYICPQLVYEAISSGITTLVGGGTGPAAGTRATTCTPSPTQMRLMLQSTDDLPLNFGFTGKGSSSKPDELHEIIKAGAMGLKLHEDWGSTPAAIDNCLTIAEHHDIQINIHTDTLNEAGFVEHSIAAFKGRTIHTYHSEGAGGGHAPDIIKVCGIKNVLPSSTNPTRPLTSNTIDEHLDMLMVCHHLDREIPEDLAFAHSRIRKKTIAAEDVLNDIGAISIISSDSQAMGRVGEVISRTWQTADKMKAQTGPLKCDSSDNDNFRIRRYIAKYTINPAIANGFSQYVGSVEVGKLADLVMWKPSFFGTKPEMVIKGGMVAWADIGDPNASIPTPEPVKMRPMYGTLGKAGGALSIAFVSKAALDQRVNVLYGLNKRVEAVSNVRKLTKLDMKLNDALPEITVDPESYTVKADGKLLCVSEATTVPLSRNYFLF

[3] = target: Urease (Canavalia ensiformis) (UniProt P07374); test: Inhibition of Jack bean urease assessed as production of ammonia at 10 mM after 30 mins by indophenol method
Urease (Canavalia ensiformis), sequence (P07374 whole entry, looked up): as the sequence (P07374 whole entry) above

[4] = Antiproliferative activity against African green monkey Vero cells assessed as reduction in cell viability at 100 uM after 48 hrs by SRB assay; format: cell-based; details: chlorocebus sabaeus

SMILES	IC50 [1] [nM]	IC50 [2] [nM]	inhibition [3] [%]	inhibition at 48 h, 100 µM [4] [%]
Cc1ccc(/N=C2\C(=O)Nc3ccc(Cl)cc32)cc1/N=C1\C(=O)Nc2ccc(Cl)cc21	2560	110	> 50	18.5
Cc1ccc(/N=C2\C(=O)Nc3ccccc32)cc1/N=C1\C(=O)Nc2ccccc21	3760	1150	> 50	23.6
Cc1ccc(/N=C2\C(=O)Nc3ccc(S(=O)(=O)O)cc32)cc1/N=C1\C(=O)Nc2ccc(S(=O)(=O)O)cc21	3880	25200	> 50	11.7
CC[C@]1(O)C[C@H]2CN(CCc3c([nH]c4ccccc34)[C@@](C(=O)OC)(c3cc4c(cc3OC)N(C=O)[C@H]3[C@@](O)(C(=O)OC)[C@H](OC(C)=O)[C@]5(CC)C=CCN6CC[C@]43[C@@H]65)C2)C1 [VINCRISTINE]	–	–	–	16.8
Cc1ccc(/N=C2\C(=O)Nc3ccc(Br)cc32)cc1/N=C1\C(=O)Nc2ccc(Br)cc21	2320	40	> 50	18.7
Cc1ccc(/N=C2\C(=O)Nc3ccc(F)cc32)cc1/N=C1\C(=O)Nc2ccc(F)cc21	2990	1650	> 50	22.1
Cc1ccc2c(c1)/C(=N/c1ccc(C)c(/N=C3\C(=O)Nc4ccc(C)cc43)c1)C(=O)N2	3010	340	> 50	13.4
Cc1ccc(/N=C2\C(=O)Nc3ccc([N+](=O)[O-])cc32)cc1/N=C1\C(=O)Nc2ccc([N+](=O)[O-])cc21	3730	5860	> 50	10.9
